# Results published in patent publication US10118947B2, “Modulation of structured polypeptide specificity” (BICYCLE THERAPEUTICS LIMITED, priority 2013, dated 2018).
# Like-named read-outs stand apart in the source and are kept apart here. Numbered stars: 1 amine (or outer) side, 2 acyl side, 3 side chain; on linkers, the order of the positions; unused ones are H or OH. Bridge positions count the residues as written; N and C are the ends. Square brackets hold non-standard residues; d marks the D form. Peptide text beside a SMILES is read from it. Phe(4-guanidino) = N=C(N)Nc1ccc(C[C@H](N)C(=O)O)cc1; TBMB = c1c(C[*:1])cc(C[*:3])cc1C[*:2]; Tle = CC(C)(C)[C@H](N)C(=O)O; Aze = O=C(O)[C@@H]1CCN1
# Key:
# [1] = Table 1; Method #1; cited from earlier work
# [2] = Plasma stability profiling Method #1 (MALDI-TOF, 35% plasma), rat plasma; assay type: in vitro ADME; details: for observability window / rat plasma stability profile: method #1
# In short: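 Qualitative test: 200 µM peptide incubated at 37 °C in 35% rat or human citrated plasma supplemented with PBS, sampled at 0, 3, 24 h then daily up to 10 days. Parent mass tracked by MALDI-TOF; value is time until parent peptide no longer detectable.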
# [3] = Table 1; Method #3; cited from earlier work
# [4] = Quantitative plasma stability Method #3 (LC-MS, 95% plasma), rat plasma; assay type: in vitro ADME; details: method #3; for half-life at 5 uM: rat, plasma
# Protocol: To obtain plasma stability quantitatively, peptide stock solutions (1 mM in DMSO) were shipped to Biofocus, UK, who performed the analysis. Peptides were diluted to 100 uM with water, and diluted 1:20 in plasma (5 uM final concentration, with the plasma at 95%), sampled as appropriate, precipitated as above, and quantified using a Waters Xevo TQ-MS.
# rat plasma Kallikrein [5] = biological target: T1, rat plasma Kallikrein (Rattus norvegicus, UniProt P14272)
# T1 construct: polyhistidine tag (N, cleaved yes); proTEV cleavage site (pro-peptide linker) (N, cleaved yes); made in house; host or cells: HEK-293 (suspension-adapted)
# T1 sequence (P14272 391-638 limits assumed): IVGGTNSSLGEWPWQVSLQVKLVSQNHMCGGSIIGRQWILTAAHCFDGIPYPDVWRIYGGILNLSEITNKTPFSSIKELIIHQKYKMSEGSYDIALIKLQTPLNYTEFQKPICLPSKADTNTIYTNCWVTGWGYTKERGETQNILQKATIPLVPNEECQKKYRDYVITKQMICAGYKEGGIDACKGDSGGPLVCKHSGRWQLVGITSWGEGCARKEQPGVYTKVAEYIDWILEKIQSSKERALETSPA
# human plasma Kallikrein = biological target: T2, human plasma Kallikrein (Homo sapiens, UniProt P03952); assay: Functional enzyme inhibition assay with fluorogenic substrate Z-PheArg-AMC, human plasma Kallikrein; assay type: biochemical
# T2 construct: purchased Stratech, UK
# T2 sequence (P03952 20-638): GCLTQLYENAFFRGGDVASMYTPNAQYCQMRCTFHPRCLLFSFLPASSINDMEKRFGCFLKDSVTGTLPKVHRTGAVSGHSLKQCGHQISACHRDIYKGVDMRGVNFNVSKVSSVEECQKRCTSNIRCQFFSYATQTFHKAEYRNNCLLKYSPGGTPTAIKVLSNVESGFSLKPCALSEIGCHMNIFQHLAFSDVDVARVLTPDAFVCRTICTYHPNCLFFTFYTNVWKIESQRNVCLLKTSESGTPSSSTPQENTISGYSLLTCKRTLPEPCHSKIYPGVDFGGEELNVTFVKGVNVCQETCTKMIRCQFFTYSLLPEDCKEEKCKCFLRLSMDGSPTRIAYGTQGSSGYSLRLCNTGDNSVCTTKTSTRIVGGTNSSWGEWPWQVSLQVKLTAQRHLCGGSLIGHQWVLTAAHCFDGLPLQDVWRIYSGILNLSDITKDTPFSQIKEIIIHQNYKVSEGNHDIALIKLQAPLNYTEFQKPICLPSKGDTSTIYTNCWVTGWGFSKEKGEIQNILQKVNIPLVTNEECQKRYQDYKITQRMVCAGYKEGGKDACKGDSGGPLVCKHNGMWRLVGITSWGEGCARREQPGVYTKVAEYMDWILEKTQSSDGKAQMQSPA
# In short: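 Rates of AMC release (excitation 360 nm, emission 460 nm) from 100 μM final Z-PheArg-AMC, 4% DMSO, were taken over the linear phase, typically 5 to 45 minutes. IC50 from four-parameter non-linear regression; Ki also derived.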
# rat plasma Kallikrein [6] = biological target: T1, rat plasma Kallikrein; assay: Functional enzyme inhibition assay with fluorogenic substrate Z-PheArg-AMC, rat plasma Kallikrein; assay type: biochemical; details: Table 26a, loop2 stability enhanced candidates
# Protocol: Functional enzyme assays were conducted in 10 mM Tris HCl, 150 mM NaCl, 10 mM MgCl2, 1 mM CaCl2) and 1 mg/mL BSA (all Sigma UK) pH7.4 at 25° C. in solid black 96 well plates. Briefly 26.5 pM human plasma Kallikrein (purchased from Stratech, UK) or 500 pM rat plasma Kallikrein (expressed and purified in house) were incubated in the absence or presence of increasing concentrations of test peptide for 15 minutes before addition of the fluorogenic substrate Z-PheArg-AMC (Enzo Lifesciences UK) to a final assay concentration of 100 μM in 4% DMSO. Release of AMC was measured using a Pherastar FS (BMG Labtech), excitation 360 nm, emission 460 nm. The rate of the linear phase of the reaction, typically 5 to 45 minutes, was calculated in MARS data analysis software (BMG labtech). The rate was then used to calculate the IC50 and Ki in Prism (GraphPad). A four parameter inhibition non-linear regression equation was used to calculate the IC50.
# Peptides were dissolved as the TFA-salts in their powder form, and stock solutions were usually prepared in water. All solutions were centrifuged and filtered ([…] syringe filters) prior absorption measurement at 280 nm. Extinction coefficients were calculated based on the Trp/Tyr content of the peptide, and that of TMB (the TMB core, when contained in a peptide, has an ε of ˜300 M^−1cm^−1). For peptides containing non-natural amino acids with suspected chromophoric properties (i.e. NorHar, 4PhenylPro, 3Pal, 4Pal, Tic, 4GuanPhe, 4,4-BPAI, 3,3-DPA, 1NAI, 2NAI, 4BenzylPro, Ind) concentrations were determined by weighing the powder and dissolving the peptide in a defined quantity of water.
# [7] = Plasma stability / fragment profiling Method #2 (MALDI-TOF, 95% plasma), human plasma; assay type: in vitro ADME; details: running text and figure legends
# In short: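 Peptide at 50 uM final in 95% human plasma without PBS; timed samples frozen at −80 °C, then extracted with 1:1 acetonitrile:methanol. Supernatant mixed with 30 mM ammonium bicarbonate and analysed by MALDI-TOF; qualitative fragment profiling of relative stability over time.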
# [8] = Intravenous pharmacokinetics in Sprague Dawley rats; assay type: in vivo; details: rat
# Protocol: Peptides were applied as intravenous boli in PBS-buffered solution at 1.02 mg/mL (containing 2.9% DMSO) at 5.2 mg/kg to Sprague Dawley rats, and serial blood samples were taken from each animal via temporary indwelling tall vein cannulae at 5, 10, 20, 30, 60, 120, and 240 minutes post dose, and transferred to EDTA tubes for plasma generation. Data was acquired for peptide “all D Ac-06-34-18” from 3 rats, for “Ac-(06-34-18) Phe2 Aze3 Tyr4 HArg5 Ala(ψCH2NH)6” from two rats, and for “Ac-(06-34-18) Phe2 Aze3 Tyr4 HArg5 D-Asp9” from two rats.
# Plasma samples were then treated with 3 volumes of a 1:1 mixture of acetonitrile and methanol, precipitated proteins were removed by centrifugation, and the supernatant was analysed by UPLC-MS/MS.
# Quantification for peptide content in the samples was by reference to a calibration line prepared in control rat plasma. Pharmacokinetic parameters were determined by non-compartmental analysis using the software package PK Solutions 2.0 from Summit Research Services.
# [9] = Table 1; read-out: Ki (nM) (rat kallikrein); cited from earlier work
# [10] = read-out: half-life in rat plasma (t1/2) (converted)
smiles,measurement,setting,value
CC(=O)N[C@H]1CSCc2cc3cc(c2)CSC[C@H](NC(=O)[C@H](Cc2ccc(NC(=N)N)cc2)NC(=O)[C@H](C)NC(=O)[C@@H]2CCN2C(=O)[C@H](Cc2c[nH]c4ccccc24)NC(=O)[C@H](CO)NC1=O)C(=O)N[C@@H](CC(C)C)C(=O)N[C@@H](Cc1c[nH]cn1)C(=O)N[C@@H](CCC(N)=O)C(=O)N[C@@H](CC(=O)O)C(=O)N[C@@H](CC(C)C)C(=O)N[C@H](C(N)=O)CSC3 [Ac-(06-34-18) Aze3 4GuanPhe5] (Ac-CSW[Aze]A[Phe(4-guanidino)]CLHQDLC-NH2; linker 1-7-13 via TBMB),"Observable in rat plasma, for days",[1],>10 days
same,"Observable in rat plasma, for days","[2]; Table 15, comparative stabilities estimated according to method #1",>10 days
CC(=O)N[C@H]1CSCc2cc3cc(c2)CSC[C@H](NC(=O)[C@H](CCCCNC(=N)N)NC(=O)[C@H](C)NC(=O)[C@@H]2CCCN2C(=O)[C@H](Cc2c[nH]c4ccccc24)NC(=O)[C@H](CO)NC1=O)C(=O)N[C@@H](CC(C)C)C(=O)N[C@@H](Cc1c[nH]cn1)C(=O)N[C@@H](CCC(N)=O)C(=O)N[C@@H](CC(=O)O)C(=O)N[C@@H](CC(C)C)C(=O)N[C@H](C(N)=O)CSC3 [Ac-(06-34-18) HomoArg5],t1/2 (hrs) in rat plasma,[3],10.7 h
same,half-life at 5 uM,"[4]; Table 15, read-out: t1/2 (hrs) in rat plasma (converted)",10.7 h
same,Ki,rat plasma Kallikrein [5]; [9],101 nM
CC(=O)N[C@H]1CSCc2cc3cc(c2)CSC[C@H](NC(=O)[C@H](CCCNC(=N)N)N(C)C(=O)[C@H](C)NC(=O)[C@@H]2CCCN2C(=O)[C@H](Cc2c[nH]c4ccccc24)NC(=O)[C@H](CO)NC1=O)C(=O)N[C@@H](CC(C)C)C(=O)N[C@@H](Cc1c[nH]cn1)C(=O)N[C@@H](CCC(N)=O)C(=O)N[C@@H](CC(=O)O)C(=O)N[C@@H](CC(C)C)C(=O)N[C@H](C(N)=O)CSC3 [Ac-(06-34-18) NMeArg5],reduction in potency/affinity compared to wildtype,human plasma Kallikrein,20 fold
same,t1/2 (hrs) in rat plasma,[3],>20 h
same,t1/2 (hrs) in rat plasma,[4]; Table 15,>20 h
same,half-life at 5 uM,[4]; [10],> 20 h
same,observability window / rat plasma stability profile,[2],exceeds the assay time
same,Ki,rat plasma Kallikrein [5]; [9],120 nM
CC(=O)N[C@H]1CSCc2cc3cc(c2)CSC[C@H](NC(=O)[C@H](CCCNC(=N)N)NC(=O)[C@H](Cc2ccc(O)cc2)NC(=O)[C@@H]2CCCN2C(=O)[C@H](Cc2ccccc2)NC(=O)[C@H](CO)NC1=O)C(=O)N[C@@H](C(C)(C)C)C(=O)N[C@@H](Cc1c[nH]cn1)C(=O)N[C@@H](CCC(N)=O)C(=O)N[C@@H](CC(=O)O)C(=O)N[C@@H](CC(C)C)C(=O)N[C@H](C(N)=O)CSC3 [Ac-(06-34-18) Phe2 Tyr4 tBuGly6] (Ac-CSFPYRC[Tle]HQDLC-NH2; linker 1-7-13 via TBMB),Ki,"human plasma Kallikrein; Table 24a, residue 6 modification in the context of Ac-(06-34-18) Phe2 Tyr4, read-out: Ki (nM) Ac-(06-34-18) Phe2 Tyr4",3.76 nM
same,Ki,rat plasma Kallikrein [6],218 nM
same,degradation / fragments in human plasma (in words),[7],only removal of Arg5 in the first loop
CC(=O)N[C@H]1CSCc2cc3cc(c2)CSC[C@H](NC(=O)[C@H](CCCNC(=N)N)NC(=O)[C@H](C)NC(=O)[C@@H]2CCCN2C(=O)[C@H](Cc2c[nH]c4ccccc24)NC(=O)[C@H](CO)NC1=O)C(=O)N[C@@H](CC(C)C)C(=O)N[C@@H](Cc1c[nH]cn1)C(=O)N[C@@H](CCC(N)=O)C(=O)N[C@@H](CC(=O)O)C(=O)N[C@@H](CC(C)C)C(=O)N[C@H](C(N)=O)CSC3 [Ac-(06-34-18) wildtype],t1/2 (hrs) in rat plasma,[3],2.3 h
same,t1/2 (hrs) in rat plasma,[4]; Table 15,2.3 h
same,half-life at 5 uM,[4]; [10],2.3 h
same,observability window / rat plasma stability profile,[2],about 2 days
same,Ki,rat plasma Kallikrein [5]; read-out: Ki (nM) (rat kallikrein); Table 1; cited from earlier work,1.8 nM
"CC(=O)N[C@@H]1CSCc2cc3cc(c2)CSC[C@@H](NC(=O)[C@@H](CCCNC(=N)N)NC(=O)[C@@H](C)NC(=O)[C@H]2CCCN2C(=O)[C@@H](Cc2c[nH]c4ccccc24)NC(=O)[C@@H](CO)NC1=O)C(=O)N[C@H](CC(C)C)C(=O)N[C@H](Cc1c[nH]cn1)C(=O)N[C@H](CCC(N)=O)C(=O)N[C@H](CC(=O)O)C(=O)N[C@H](CC(C)C)C(=O)N[C@@H](C(N)=O)CSC3 [All D 06-34-18, Ac-cswparclhqdlc-NH2(TMB), reference compound]",potency / binding to kallikrein (in words),human plasma Kallikrein,lacks any potency
same,half-life,"[8]; Sprague Dawley, in vivo, intravenous bolus 5.2 mg/kg, read-out: elimination half-life",0.9 h
same,Clearance based on AUC0-∞,[8]; intravenous,4.5 mL/min/kg
same,Volume of distribution based on AUC0-∞,[8]; intravenous,0.3 L/kg
